Assay results taken from ChEMBL document CHEMBL3745619, “Preparation and optimization of pyrazolo[1,5-a]pyrimidines as new potent PDE4 inhibitors” (Bioorg Med Chem Lett, 2016).

Columns and labels:
[1] = target: 3',5'-cyclic-AMP phosphodiesterase 4B (Homo sapiens, UniProt Q07343); test: Inhibition of human recombinant PDE4B1 expressed in insect Sf9 cells by fluorescence capillary-electrophoresis assay
Phosphodiesterase 4 [2] = target: T1, Phosphodiesterase 4 (Homo sapiens, UniProt P27815+Q08499+Q07343+Q08493); test: Inhibition of PDE4 in human SHSY-5Y cells assessed as suppression of cAMP hydrolysis by HTRF assay in presence of dye d2 labelled cAMP; assay type: cell-based; settings: sh-sy5y
Phosphodiesterase 4 [3] = target: T1, Phosphodiesterase 4; test: Inhibition of PDE4 in human SHSY-5Y cells assessed as suppression of cAMP hydrolysis at 10 uM by HTRF assay in presence of dye d2 labelled cAMP; assay type: cell-based; settings: SH-SY5Y
[4] = target: cGMP-inhibited 3',5'-cyclic phosphodiesterase 3A (Homo sapiens, UniProt Q14432); test: Inhibition of human recombinant PDE3 by fluorescence capillary-electrophoresis assay
cGMP-inhibited 3',5'-cyclic phosphodiesterase 3A, sequence (Q14432 whole entry): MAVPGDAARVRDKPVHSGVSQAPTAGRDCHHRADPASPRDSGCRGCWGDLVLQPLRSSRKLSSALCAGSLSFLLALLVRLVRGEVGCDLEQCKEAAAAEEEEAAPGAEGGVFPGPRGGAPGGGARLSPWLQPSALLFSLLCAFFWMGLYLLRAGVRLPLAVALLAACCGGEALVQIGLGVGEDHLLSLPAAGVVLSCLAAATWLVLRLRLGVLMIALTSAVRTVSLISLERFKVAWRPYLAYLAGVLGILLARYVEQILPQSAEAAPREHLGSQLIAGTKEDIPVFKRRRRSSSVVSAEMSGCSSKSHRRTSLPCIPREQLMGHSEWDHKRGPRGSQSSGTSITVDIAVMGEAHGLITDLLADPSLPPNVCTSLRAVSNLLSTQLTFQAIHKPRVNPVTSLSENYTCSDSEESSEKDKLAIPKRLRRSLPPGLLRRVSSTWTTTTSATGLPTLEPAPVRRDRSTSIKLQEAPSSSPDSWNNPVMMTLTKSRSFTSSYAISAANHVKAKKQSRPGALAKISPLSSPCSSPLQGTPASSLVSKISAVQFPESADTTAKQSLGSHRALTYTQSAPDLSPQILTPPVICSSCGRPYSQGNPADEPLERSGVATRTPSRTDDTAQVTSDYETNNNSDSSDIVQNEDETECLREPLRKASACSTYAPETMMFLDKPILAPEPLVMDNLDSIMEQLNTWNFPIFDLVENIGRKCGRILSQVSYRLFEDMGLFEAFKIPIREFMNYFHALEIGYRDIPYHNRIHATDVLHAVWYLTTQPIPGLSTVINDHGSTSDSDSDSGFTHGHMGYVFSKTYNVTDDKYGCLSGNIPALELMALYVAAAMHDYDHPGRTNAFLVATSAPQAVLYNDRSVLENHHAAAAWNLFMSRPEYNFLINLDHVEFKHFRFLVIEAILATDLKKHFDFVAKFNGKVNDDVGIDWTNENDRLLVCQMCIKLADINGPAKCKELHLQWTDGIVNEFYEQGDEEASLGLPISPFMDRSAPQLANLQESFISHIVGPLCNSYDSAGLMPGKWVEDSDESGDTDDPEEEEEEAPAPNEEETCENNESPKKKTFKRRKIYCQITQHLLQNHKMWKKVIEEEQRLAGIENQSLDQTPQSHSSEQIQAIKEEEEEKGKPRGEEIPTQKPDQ

3',5'-cyclic-AMP phosphodiesterase 4B, sequence (Q07343 whole entry): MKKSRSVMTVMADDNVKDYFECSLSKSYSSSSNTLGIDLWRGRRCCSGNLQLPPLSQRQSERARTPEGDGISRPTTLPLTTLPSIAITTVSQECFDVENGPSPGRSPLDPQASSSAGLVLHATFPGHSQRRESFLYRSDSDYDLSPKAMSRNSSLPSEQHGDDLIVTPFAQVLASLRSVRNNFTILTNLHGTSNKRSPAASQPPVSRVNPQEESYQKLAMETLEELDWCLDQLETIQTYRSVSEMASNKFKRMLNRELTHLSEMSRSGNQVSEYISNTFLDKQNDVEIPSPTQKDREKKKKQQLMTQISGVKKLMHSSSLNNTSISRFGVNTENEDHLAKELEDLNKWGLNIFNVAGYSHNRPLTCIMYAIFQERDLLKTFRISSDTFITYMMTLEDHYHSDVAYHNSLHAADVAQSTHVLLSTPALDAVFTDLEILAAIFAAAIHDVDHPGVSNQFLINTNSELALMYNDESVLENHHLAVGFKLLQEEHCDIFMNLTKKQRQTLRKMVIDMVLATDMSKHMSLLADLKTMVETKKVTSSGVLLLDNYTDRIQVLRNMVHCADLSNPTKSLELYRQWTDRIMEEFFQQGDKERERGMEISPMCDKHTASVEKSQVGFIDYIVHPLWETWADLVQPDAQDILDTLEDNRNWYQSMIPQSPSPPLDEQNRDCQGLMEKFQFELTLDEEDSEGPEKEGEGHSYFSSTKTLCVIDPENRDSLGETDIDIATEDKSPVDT

Row | Compound | IC50 [1] | IC50 (Phosphodiesterase 4 [2]) | inhibition (Phosphodiesterase 4 [3]) | IC50 [4]
1 | Cc1c(S(C)(=O)=O)nn2c(Nc3cc(Cl)cc(Cl)c3)c(C(N)=O)cnc12 | 7 nM | 1500 nM | – | –
2 | CCc1cnn2c(Nc3cccc(OC)c3)c(C(N)=O)cnc12 | 38 nM | 5400 nM | – | –
3 | COc1cccc(Nc2c(C(N)=O)cnc3c(C)c(S(C)(=O)=O)nn23)c1 | 26 nM | 1820 nM | – | –
4 | Cc1c(S(=O)(=O)c2ccccc2)nn2c(Nc3cc(Cl)cc(Cl)c3)c(C(N)=O)cnc12 | 7 nM | 5600 nM | – | –
5 | CSc1nn2c(Nc3cc(Cl)cc(Cl)c3)c3c(nc2c1C)CCNC3=O | 0.2 nM | 480 nM | – | –
6 | COc1cccc(Nc2c(C(N)=O)cnc3c(C)cnn23)c1 | 165 nM | > 10000 nM | < 50% | > 10000 nM
7 | Cc1c(S(C)(=O)=O)nn2c(Nc3cc(Cl)cc(Cl)c3)c3c(nc12)CCNC3=O | 0.03 nM | 5 nM | – | –
8 | COc1cccc(Nc2c3c(nc4c(C)c(S(C)(=O)=O)nn24)CCNC3=O)c1 | 0.1 nM | 8 nM | – | –
9 | CC(C)c1c(S(C)(=O)=O)nn2c(Nc3cc(Cl)cc(Cl)c3)c(C(N)=O)cnc12 | 6 nM | 507 nM | – | –
10 | COc1cccc(Nc2c(C(N)=O)cnc3c(C)c(S(=O)(=O)c4ccccc4)nn23)c1 | 4 nM | 243 nM | – | –
11 | Cc1c(S(=O)(=O)c2cccc(C(=O)N(C)C)c2)nn2c(Nc3cc(Cl)cc(Cl)c3)c(C(N)=O)cnc12 | 0.2 nM | 130 nM | – | –
12 | Cc1cnn2c(Nc3ccccc3)c(C(N)=O)cnc12 | 1950 nM | > 10000 nM | – | –
13 | Cc1cnn2c(Nc3cc(Cl)cc(Cl)c3)c(C(N)=O)cnc12 | 16 nM | > 10000 nM | – | –
14 | COc1cccc(Nc2c(C(N)=O)cnc3c(C(C)C)c(S(C)(=O)=O)nn23)c1 | 5 nM | 270 nM | – | –
15 | CNC(=O)c1cnc2c(C)cnn2c1Nc1cccc(OC)c1 | > 10000 nM | > 10000 nM | – | –
16 | COc1cccc(Nc2c(C(N)=O)cnc3c(C)c(S(=O)(=O)c4cccc(C(=O)N(C)C)c4)nn23)c1 | 0.7 nM | 629 nM | – | –
